The subject of data set [1] is nGLP-1R (N-terminal extracellular domain of GLP-1R, amino acids 24-145). Briefly: Differential HDX of the nGLP-1R peptide […] in the presence of ligands. The format is binding. Conditions: HDX-MS; for average change in % Deuterium (Δ %D) in nGLP-1R peptide WETVQKWRE: 7TM HDX buffer pH 7.5 (50 mM Hepes, 150 mM NaCl, 2% glycerol, 0.05% DDM, 0.01% CHS), stock 10 µM nGLP-1R, peptide ligands 20 µM or small molecules 100 µM, 1 h equilibration at 4°C, on-exchange 10-3600 s, 80% D2O, 4°C, 3-4 replicates, back exchange corrected with estimated 70% recovery; for protection to exchange of nGLP-1R (result in words): peptides spanning Trp32 to Glu40 of nGLP-1R, DDM/CHS micelles, pH 7.5, 4°C, significance P < 0.05 at two consecutive time points. The text has this:
(§1) Exendin-4 (cat # E7144), HPLC grade H2O, D2O (99.9%), acetonitrile, formic acid, tris-(carboxyethyl)-phosphinehydrochloride (TCEP), NaCl, NaH2PO4 and glycerol were purchased from Sigma-Aldrich. Exendin-4[9-39] […] The GLP-1R ligands 6-BPPI (6-(2,5-dichlorobenzyl)-1-hydroxy-2-(2-morpholin-4-ylethyl)-1,6-dihydropyrrolo[3′,4′:5,6]pyrido[3,4-B]indol-3(2H)-one), Boc-5 [23], T-0632 (sodium (S)-3-[1-(2-fluorophenyl)-2,3-dihydro-3-[(3-isoquinolinyl-carbonyl)amino]-6-methoxy-2-oxo-1H-indole]propanoate), [25] and TT15 (2S)-2-[[(8S)-7-benzoyl-3-[4-[(3,4-dichlorophenyl)methoxy]phenyl]-2-oxo-1,6,8,9-tetrahydropyrido[4,3-g][1,4]benzoxazine-8-carbonyl]amino]-3-[4-(4-cyanophenyl)phenyl]propanoic acid) were synthesized according to standard or published methods at Eli Lilly. Trifluoroacetic acid (TFA, Sequanal grade) was obtained from Pierce. High purity n-dodecyl-β-D-maltoside (DDM) and cholesterol hemisuccinate (CHS) were purchased from Avanti Polar Lipids. The porcine pepsin-immobilized POROS 20 AL beads (particle size 20 µm) used to pack immobilized pepsin columns were purchased from Applied Biosystems. The model peptide for gas phase scrambling experiments, […], was purchased from the American Peptide Company (#350416).

The target of data set [2] is T1, wild-type GLP-1R (NP_002053) (Homo sapiens, UniProt P43220).
T1 construct: HEK293 cells were transfected with plasmids expressing either wild-type GLP-1R (NP_002053); expressed in transfected cells; host or cells: HEK293
T1 sequence (P43220 24-463): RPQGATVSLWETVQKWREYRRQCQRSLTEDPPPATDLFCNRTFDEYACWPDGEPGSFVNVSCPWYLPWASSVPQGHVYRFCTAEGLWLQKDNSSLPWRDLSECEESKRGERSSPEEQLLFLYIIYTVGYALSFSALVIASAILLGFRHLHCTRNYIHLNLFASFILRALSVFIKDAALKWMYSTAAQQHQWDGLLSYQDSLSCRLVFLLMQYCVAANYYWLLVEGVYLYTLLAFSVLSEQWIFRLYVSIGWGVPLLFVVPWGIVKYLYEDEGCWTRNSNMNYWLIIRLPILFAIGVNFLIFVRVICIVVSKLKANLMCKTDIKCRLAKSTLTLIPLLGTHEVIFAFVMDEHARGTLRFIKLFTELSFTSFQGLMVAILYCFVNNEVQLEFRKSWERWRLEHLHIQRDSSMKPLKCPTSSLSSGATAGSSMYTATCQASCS
The data set is described as follows: cAMP accumulation in HEK293 cells transfected with wild-type GLP-1R. Type of data set: cell-based. Conditions: for pIC50: IC50, antagonism of GLP-1 induced cAMP accumulation. As to the method: (§2) cAMP accumulation assays were performed as previously described. HEK293 cells were transfected with plasmids expressing either wild-type GLP-1R (NP_002053) or chimera nGIP-R:GLP-1R (amino acids 1-124 of GIP-R (NP_000155) fused in-frame with amino acids 137-463 of GLP-1R).
(§3) Figure 4 Changes to HDX of nGLP-1R in the Presence of Peptide and Small Molecule Ligands. […] Deuterium exchange was measured in the presence of DDM/CHS micelles as indicated in the Experimental section The exendin-4[9-39] peptide ligand is colored gray. B) Table showing the average change in % Deuterium in this same nGLP-1R peptide ([…]) for four peptide ligands and four proposed small molecule ligands.
For orientation: cAMP levels reflect the balance of adenylyl cyclase and phosphodiesterase activity.

For data set [3], the system named is chimera nGIP-R:GLP-1R (amino acids 1-124 of GIP-R (NP_000155) fused in-frame with amino acids 137-463 of GLP-1R). Briefly: cAMP accumulation in HEK293 cells transfected with chimera nGIP-R:GLP-1R. The format is cell-based. As to conditions: GIPR/GLP-1R chimera, EC50 to EC80 concentrations of GLP-1. Here is the method: as §2, §3
Data set [4] has as its system extracellular domain of GLP-1R. Conditions: cited from earlier work.
The test system of data set [5] is nGLP-1R (N-terminal extracellular domain of GLP-1R, amino acids 24-145). The data set is described as follows: Differential HDX of peptide ligands in the presence vs absence of nGLP-1R. The format is binding. As to conditions: HDX-MS, stock 10 µM peptide with or without 20 µM nGLP-1R, DDM/CHS micelles, pH 7.5, 4°C; for protection to exchange of ligand amides near helix bend / FxxWL motif upon binding nGLP-1R: 10-3600 s, protection confined from Ala18 to Asn28.
Text: as §1

For data set [6] the following is noted: pH 7.5.
Procedure: All stock solutions and dilutions were made using the 7TM HDX buffer. The 7TM HDX buffers were composed of 50 mM Hepes (pH 7.5), 150 mM NaCl, 2% (v/v) glycerol, 0.05% (m/v) DDM, and 0.01% (m/v) CHS in either H2O or in D2O for on-exchange. All HDX stock solutions of the N-terminal extracellular domain of the glucagon-like peptide-1 receptor (nGLP-1R) were prepared at 10 µM nGLP-1R in the 7TM HDX H2O buffer. […] All HDX stock solutions of the peptides were at 10 µM. When ligands were studied in the presence of the nGLP-1R the stock solutions contained 20 µM nGLP-1R. When ligands and receptor were mixed in stock solutions they were allowed to equilibrate for one hour at 4°C.
Solution-phase amide HDX was carried out with a fully automated system described previously [17]. […]
Mass spectra were acquired in the range of m/z 300–2000 at a resolution of 60,000 for 8 min in positive ion mode on an LTQ Orbitrap XL ETD mass spectrometer (Thermo Fisher Scientific) equipped with an ESI source operated at capillary temperature of 225°C and spray voltage of 3.5 kV. The intensity weighted average m/z value (centroid) of each peptide's isotopic envelope was calculated with in-house developed software; Workbench (Pascal et al. 2013) and converted to % Deuterium values. […]
Data set [7] relates to nGLP-1R (N-terminal extracellular domain of GLP-1R, amino acids 24-145). Briefly: Single amino acid resolution HDX by ETD of Phe22-Ser39 peptic peptide. Type of data set: binding. As to conditions: DDM/CHS micelles. Here is the method: To optimize the instrument parameters and to monitor gas-phase scrambling, we employed the model peptide […] described by the Jorgensen group. Complete deuteration was achieved by incubation of the peptide in deuterated buffer (20 mM NaH2PO4, pH 2.6) for one hour at 4°C. HDX off-exchange was initiated by a 10-fold dilution into infusion buffer (50% MeOH, 0.5 M CH3COOH, pH 2.6) followed by elution over the same LC configuration used for HDX after 30 s of off-exchange. Under these conditions the peptide eluted in ∼1.6 minutes. Full-scan and ETD MS/MS spectra were acquired on the LTQ Orbitrap XL ETD. Instrument conditions were identical to those published previously except the capillary temperature was set to 75°C. Varying isolation widths and capillary temperatures were tested to minimize scrambling and maintain ion signal intensity (Figure S3). A capillary temperature of 75°C and isolation width of 12 amu was used for ETD of exendin-4[9-39]. Five replicates were run after 30 s of deuterium exchange for exendin-4[9-39] in the presence and absence of nGLP-1R on the same LC configuration described above.

The mark [8] stands for this setting: 30 s of exchange, apo vs nGLP-1R bound, 5 replicates.

pIC50: −log10 of the molar value. “Also recorded” adds a separate entry of the source.

Turning to `O=C1c2ncc3c(c2C(O)N1CCN1CCOCC1)c1ccccc1n3Cc1cc(Cl)ccc1Cl` (centres unmarked) [6-BPPI, 6-(2,5-dichlorobenzyl)-1-hydroxy-2-(2-morpholin-4-ylethyl)-1,6-dihydropyrrolo[3′,4′:5,6]pyrido[3,4-B]indol-3(2H)-one], the “average change in % Deuterium (Δ %D) in nGLP-1R peptide WETVQKWRE” value (shortened to “average change in % Deuterium (Δ %D)”) in data set [1] is -27%. Further, the “protection to exchange of nGLP-1R (result in words)” value (“protection to exchange of nGLP-1R” below) in data set [1] is “thermodynamic stabilizing interactions”. Further, the “antagonism of GLP-1 signalling (result in words)” value in data set [2] (HEK293 cells, EC50 to EC80 concentrations of GLP-1) was “Dose-dependent blockade of GLP-1R signalling; also recorded: effective antagonist of the GLP-1R”; in data set [3] it was “not GIPR/GLP-1R; also recorded: inactive on a chimeric receptor”. The pIC50 in data set [2] (10 pM GLP-1, HEK293 cells) was 7.48; in data set [2] (30 pM GLP-1, HEK293 cells) it was 6.96; in data set [2] (100 pM GLP-1, HEK293 cells) it was 6.51.

As for `COc1cc(C2C(NC(=O)c3ccc(NC(=O)OC(C)(C)C)cc3)(C(=O)O)C(c3ccc(OC(=O)c4cccs4)c(OC)c3)C2(NC(=O)c2ccc(NC(=O)OC(C)(C)C)cc2)C(=O)O)ccc1OC(=O)c1cccs1` (centres unmarked) [Boc-5], in data set [1], the “average change in % Deuterium (Δ %D)” value is -12% and the “protection to exchange of nGLP-1R” value is listed as “thermodynamic stabilizing interactions”.

As for “exendin-4: GLP-1R peptide agonist, Sigma-Aldrich cat # E7144; DPP4 resistant mimetic”, the “affinity for extracellular domain of GLP-1R (in words)” value in data set [4] was “high affinity”. In addition, in data set [1], the “average change in % Deuterium (Δ %D)” value is -21% and the “protection to exchange of nGLP-1R” value was “significant protection to exchange”. Besides, in data set [5], the “change in deuterium exchange at N-terminal amino acids His1 to Glu17 upon binding nGLP-1R” value was “no statistically significant change in the magnitude of deuterium exchange” and the “protection to exchange of ligand amides near helix bend / FxxWL motif upon binding nGLP-1R” value was “showed protection to their hydrogen bonding network around the FxxWL motif”. The “deuterium incorporation / stability of hydrogen bonding network of the free peptide” value in data set [6] is on record as “Lower deuterium incorporation was observed for all homologous peptides”.

In the case of “exendin-4[9-39]: N-terminal truncated exendin-4, a potent antagonist; Bachem cat # H-8740”, the “affinity for extracellular domain of GLP-1R (in words)” value in data set [4] is “high affinity”. In addition, in data set [1], the “average change in % Deuterium (Δ %D)” value is -20% and the “protection to exchange of nGLP-1R” value was “significant protection to exchange”. The “protection to exchange of ligand amides near helix bend / FxxWL motif upon binding nGLP-1R” value in data set [5] is listed as “showed protection to their hydrogen bonding network around the FxxWL motif”. Further, the “deuterium incorporation / stability of hydrogen bonding network of the free peptide” value in data set [6] is listed as “significantly destabilized in the presence of nonionic detergents as compared to the agonist exendin-4”. Also, the “deuterium incorporation for fragments from Trp25 to Asn28, absence of nGLP-1R” value in data set [7] (30 s of exchange, apo state, 5 replicates) was “increasing deuterium incorporation for fragments from Trp25 to Asn28”. In addition, in data set [7] (setting [8]), the “change in deuterium incorporation at Asn28 turn in the presence of nGLP-1R” value is on record as “small but statistically significant increase in deuterium incorporation”; the “protection at Trp25, Leu26 and Lys27 by nGLP-1R” value was “Significant protection”. For the same molecule, the “deuterium exchanged at amide of Asn28 in the presence of nGLP-1R” value in data set [7] (exendin-4[9-39] with nGLP-1R, after 30 s of exchange, average of 5 replicates) is reported as 0.33 deuterium.

Turning to “oxyntomodulin: peptide agonist, Bachem #H-6058”, in data set [1], the “average change in % Deuterium (Δ %D)” value was -10% and the “protection to exchange of nGLP-1R” value is “protection to exchange was observed”.

The pIC50 is the negative decadic logarithm of the IC50, by convention in mol/L. Read a high pIC50 as a low IC50.
